Results on two molecules are retold here after US6861438B2, “Antiviral agents” (Pfizer, priority 2002, dated 2005).

Broadly, the melting point is the temperature of the solid-liquid transition. `O=C(NCc1ccc(Cl)cc1)c1cnc2ccsc2c1O` [Example 1, N-(4-Chlorobenzyl)-7-hydroxythieno[3,2-b]pyridine-6-carboxamide]: the melting point is 295 °C (dec.).
Take `CCn1cc(C(=O)NCc2ccc(Cl)cc2)c(=O)c2sccc21` [Example 2, N-(4-Chlorobenzyl)-4-ethyl-7-oxo-4,7-dihydrothieno[3,2-b]pyridine-6-carboxamide]: the melting point fell in the range of 189 to 192 °C.
